The source of these data is patent US20220354811A1, “METHODS AND COMPOSITIONS FOR MODULATING MACROPHAGES POLARIZATION” (INSERM (INSTITUT NATIONAL DE LA SANTÉ ET DE LA RECHERCHE …, priority 2019, published 2022).

In experiment [1] the test system is human freshly isolated monocytes. As to the kind of experiment: Spontaneous apoptosis of untreated monocytes cultured without CSF-1 (Annexin V staining). It counts as cell-based. The conditions noted are these: 24 h in culture without CSF-1.
The target in experiment [2] is T1, caspase 3 (Homo sapiens, UniProt P42574).
T1 sequence (P42574 29-175 limits assumed): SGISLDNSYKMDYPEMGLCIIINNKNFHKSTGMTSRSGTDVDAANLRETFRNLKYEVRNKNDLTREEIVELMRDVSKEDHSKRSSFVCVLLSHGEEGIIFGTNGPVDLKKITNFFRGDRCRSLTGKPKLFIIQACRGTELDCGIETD
T1 sequence (P42574 176-277 limits assumed): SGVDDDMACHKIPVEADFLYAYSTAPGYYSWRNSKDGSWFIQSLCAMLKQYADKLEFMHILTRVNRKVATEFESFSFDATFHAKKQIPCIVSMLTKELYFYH
As to the kind of experiment: Caspase 3 activity in untreated monocytes (Ac-DEVD-AMC substrate). In kind it is cell-based. The arrangement: endogenous in cells; host or cells: primary human peripheral blood monocytes (CD14-selected, healthy donors). Conditions: all the concentrations tested, 1 day. On the procedure:
FIG. 3. Both Q-VD-Oph and Emricasan hamper in the same way apoptosis in untreated monocytes. […] Measures of caspase-3 (DEVD-AMC) and caspase-8 (IETD-AMC) activities. The results are expressed as A.U./mg/min and represent the mean the mean±SD of 3 independent experiments performed in triplicate.
After stimulation, cells were lysed for 30 min at 4° C. in lysis buffer (50 mM HEPES pH 8, 150 mM NaCl, 20 mM EDTA, 1 mM PMSF, 10 μg/mL leupeptin, 10 μg/mL aprotinin and 0.2% Triton X-100) and lysates were cleared at 16 000 g for 15 min at 4° C. Each assay (in triplicate) was performed with 10 μg of protein prepared from control or stimulated cells. Briefly, cellular extracts were then incubated in a 96-well plate with 0.2 mM of DEVD-AMC (Caspase-3) or IETD-AMC (Caspase-8) as substrates for various times at 37° C. Caspase activity was measured either following emission at 460 nm (excitation at 390 nm) in the presence or not of 10 μM of DEVD-CHO or IETD-CHO. Enzyme activities were expressed in arbitrary units (A.U.) per min and per mg of proteins. The same protocol was used with 0.25 units of active recombinant caspase-8 (Enzo, ALX-201-062) or -3 (Enzo, ALX-201-059) in each triplicate.

Another experiment addresses caspase-8 (Homo sapiens, UniProt Q14790). Briefly: Recombinant caspase-8 activity in vitro (Ac-IETD-AMC substrate). It counts as biochemical. The arrangement: using active recombinant proteins of caspase-8 and caspase-3; purchased Enzo life sciences ALX-201-062. The conditions noted are these: recombinant caspase-8, Ac-IETD-AMC. An excerpt:
(§1) FIG. 4. […] (A) Measures of caspase-8 activity (IETD-AMC). IETD-CHO treatment is used as positive control in the in vitro assay. The results are expressed as A.U./min and represent the mean of 3 independent experiments realized in duplicate (B) Measures of caspase-3 activity (DEVD-AMC). DEVD-CHO is used as positive control in the in vitro assay. The results are expressed as A.U./min and represent the mean of 3 independent experiments realized in duplicate. Human CSF-1 was purchased from Miltenyi (130-096-493). […] Mouse caspase-8 was from R&D Systems (AF705). HRP-conjugated rabbit anti-goat was purchased from Dako ([…]) and HRP-conjugated goat anti-rabbit was from Cell Signaling (5127). Active recombinant caspase-8 (ALX-201-062) and -3 (ALX-201-059) were from Enzo life sciences. […] Each assay (in triplicate) was performed with 10 μg of protein prepared from control or stimulated cells. […] Enzyme activities were expressed in arbitrary units (A.U.) per min and per mg of proteins. The same protocol was used with 0.25 units of active recombinant caspase-8 (Enzo, ALX-201-062) or -3 (Enzo, ALX-201-059) in each triplicate.

In experiment [3] the target is T1, caspase 3. Briefly: Recombinant caspase-3 activity in vitro (Ac-DEVD-AMC substrate). In kind it is biochemical. The arrangement: using active recombinant proteins of caspase-8 and caspase-3; purchased Enzo life sciences ALX-201-059. Conditions: recombinant caspase-3, Ac-DEVD-AMC.
Description: as §1

Sequence of caspase-8 (Q14790 217-374 limits assumed): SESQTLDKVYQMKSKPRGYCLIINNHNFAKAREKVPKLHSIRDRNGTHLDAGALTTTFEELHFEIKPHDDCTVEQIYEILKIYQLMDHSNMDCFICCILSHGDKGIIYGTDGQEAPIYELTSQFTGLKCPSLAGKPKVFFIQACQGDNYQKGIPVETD
Sequence of caspase-8 (Q14790 385-479 limits assumed): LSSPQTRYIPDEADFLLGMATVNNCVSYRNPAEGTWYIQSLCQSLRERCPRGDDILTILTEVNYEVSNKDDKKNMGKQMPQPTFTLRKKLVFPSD

As a reminder, the IC50 is the concentration at which inhibition is half-maximal. With `CC(C)[C@H](NC(=O)c1ccc2ccccc2n1)C(=O)N[C@@H](CC(=O)O)C(=O)COc1c(F)cccc1F` [Q-VD-OPh], the “concentration sufficient to abrogate Annexin V staining” value in experiment [1] was no more than 5 µM. Moreover, on caspase 3 [2], the “caspase 3 activity in untreated monocytes” value is given as “efficiently inhibited”. Also, on caspase-8, the IC50 is roughly 1000 nM and the “concentration that abrogated / fully inhibited caspase-8 activity” value turned out to be 50 µM. Further, on caspase 3 [3], the IC50 was roughly 500 nM and the “concentration of maximal inhibition of caspase-3” value was determined as 10 µM.

With `C[C@H](NC(=O)C(=O)Nc1ccccc1C(C)(C)C)C(=O)N[C@@H](CC(=O)O)C(=O)COc1c(F)c(F)cc(F)c1F` [Emricasan, (S)-3-((S)-2-(2-((2-(tert-Butyl)phenyl)amino)-2-oxoacetamido)propanamido)-4-oxo-5-(2,3,5,6-tetrafluorophenoxy)pentanoic acid], in experiment [1], the “concentration sufficient to abrogate Annexin V staining” value stood at 2 µM. Moreover, the “caspase 3 activity in untreated monocytes” value at caspase 3 [2] is “efficiently inhibited”. Further, on caspase-8, the IC50 was 12 nM and the “concentration that abrogated / fully inhibited caspase-8 activity” value is 0.2 µM. Moreover, at caspase 3 [3], the IC50 is roughly 500 nM and the “concentration of maximal inhibition of caspase-3” value was 10 µM.
